Source: patent publication US9931347B2, “Pharmaceutical compound” (IOmet Pharma Ltd., priority 2013, dated 2018)

Target: T1, TDO (A172 human glioblastoma cells) (Homo sapiens, UniProt P48775)
T1 construct: This assay utilised cancer cells which expressed either TDO or IDO; endogenous in cells; host or cells: A172 human glioblastoma cells
Assay: A172 Kynurenine cell based assay
Details: 500 μM L-tryptophan, 48 hours, kynurenine by Erhlich's reagent
Experimental: (§1) Exemplary compounds of the invention were prepared, and tested to determine their effect as TDO and/or IDO inhibitors. Two different assays were employed: 1. a cell-based assay for detecting the effect of test compounds on kynurenine production in two different cancer cell types. This assay utilised cancer cells which expressed either TDO or IDO and as such was used as a means of testing compound activity at these two enzymes in a cell-based context. 2. a TDO and IDO biochemical coupled assay which utilised recombinantly produced and purified TDO and IDO enzymes in combination with the enzyme formamidase. This coupled enzyme system allowed conversion of N-formylkynurenine produced by TDO or IDO activity to kynurenine which was then quantified by fluorescence following addition of Erhlich's Reagent The protocols for these are set out below.
A172 (human glioblastoma) and SKOV3 (human ovarian adenocarcinoma) cells were seeded in a 96 well plate at 30,000 or 40,000 cells per well respectively in phenol red-free RPMI supplemented with 10% FCS, 2 mM L-glutamine and 500 μM L-tryptophan. IDO expression was induced in the SKOV3 cells by the addition of 500 ng/ml IFN-γ. Cells were incubated at 37° C. with or without the addition of test compound. After 48 hours, the cells were removed by centrifugation and Erhlich's reagent was added to the supernatant. The Erhlich's reagent was incubated for 5 minutes before the absorbance was read at 490 nm.

T1 sequence (P48775 whole entry): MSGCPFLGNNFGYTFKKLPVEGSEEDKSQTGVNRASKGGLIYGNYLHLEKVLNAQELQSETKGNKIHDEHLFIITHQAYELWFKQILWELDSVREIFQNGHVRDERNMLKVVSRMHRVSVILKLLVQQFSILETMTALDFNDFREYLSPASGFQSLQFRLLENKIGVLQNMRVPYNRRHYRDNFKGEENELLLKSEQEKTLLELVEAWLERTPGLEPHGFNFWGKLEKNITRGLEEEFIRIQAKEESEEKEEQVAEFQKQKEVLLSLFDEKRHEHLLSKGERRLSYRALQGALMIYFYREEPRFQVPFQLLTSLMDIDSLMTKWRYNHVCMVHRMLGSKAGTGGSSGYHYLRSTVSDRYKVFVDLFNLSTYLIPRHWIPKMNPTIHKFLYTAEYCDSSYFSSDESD

SMILES	A172 Kynurenine cell based assay pIC50
CS(=O)(=O)N1CCC(c2c[nH]c3c(F)cccc23)CC1 [Compound 194]	+ (+ = pIC50 4.00-4.99)
CC(=O)N1CCC(c2c[nH]c3cc(F)ccc23)CC1 [Compound 200]	++ (++ = pIC50 5.00-5.99)
CC(=O)N1CC=C(c2c[nH]c3cc(F)cc(F)c23)CC1 [Compound 201]	++ (++ = pIC50 5.00-5.99)
CC(=O)N1CCC(c2c[nH]c3cc(F)cc(F)c23)CC1 [Compound 202]	+ (+ = pIC50 4.00-4.99)
Cc1ccc2c(C3=CCN(S(C)(=O)=O)CC3)c[nH]c2c1 [Compound 206]	++ (++ = pIC50 5.00-5.99)
COCCNC(=O)N1CCC(c2c[nH]c3ccccc23)CC1 [Compound 212]	+ (+ = pIC50 4.00-4.99)
CS(=O)(=O)N1CCC(c2c[nH]c3cc(F)cc(F)c23)CC1 [Compound 216]	+ (+ = pIC50 4.00-4.99)
COCCNS(=O)(=O)N1CCC(c2c[nH]c3ccccc23)CC1 [Compound 219]	+ (+ = pIC50 4.00-4.99)
O=S(=O)(N1CCOCC1)N1CCC(c2c[nH]c3ccccc23)CC1 [Compound 220]	+ (+ = pIC50 4.00-4.99)
CS(=O)(=O)N1CC=C(c2c[nH]c3cc(C(F)(F)F)ccc23)CC1 [Compound 224]	+ (+ = pIC50 4.00-4.99)
O=C(NCCO)N1CCC(c2c[nH]c3ccccc23)CC1 [Compound 226]	+ (+ = pIC50 4.00-4.99)
CS(=O)(=O)N1CC=C(c2c[nH]c3ccc(C#N)cc23)CC1 [Compound 230]	++ (++ = pIC50 5.00-5.99)
CC(=O)N1CCC(c2c[nH]c3cc(C#N)ccc23)CC1 [Compound 237]	+ (+ = pIC50 4.00-4.99)
CN(C)CCNC(=O)N1CCC(c2c[nH]c3ccccc23)CC1 [Compound 246]	+ (+ = pIC50 4.00-4.99)
CCNS(=O)(=O)N1CCC(c2c[nH]c3ccccc23)CC1 [Compound 258]	+ (+ = pIC50 4.00-4.99)
O=C(c1cnccn1)N1CCC(c2c[nH]c3cc(F)ccc23)CC1 [Compound 261]	+ (+ = pIC50 4.00-4.99)
O=C(C1CCOC1)N1CCC(c2c[nH]c3cc(F)ccc23)CC1 (stereo not drawn) [Compound 262]	+ (+ = pIC50 4.00-4.99)
COCC(=O)N1CCC(c2c[nH]c3cc(F)ccc23)CC1 [Compound 264]	++ (++ = pIC50 5.00-5.99)
CC(C)C(=O)N1CCC(c2c[nH]c3cc(F)ccc23)CC1 [Compound 266]	+ (+ = pIC50 4.00-4.99)

SMILES	A172 Kynurenine cell based assay pIC50
CC(C)C(=O)N1CCC(C(=O)N2CCC(c3c[nH]c4cc(F)ccc34)CC2)CC1 [Compound 267]	+ (+ = pIC50 4.00-4.99)
CCN1CC(C(=O)N2CCC(c3c[nH]c4cc(F)ccc34)CC2)CC1=O (stereo not drawn) [Compound 268]	+ (+ = pIC50 4.00-4.99)
O=C(c1ccno1)N1CCC(c2c[nH]c3cc(F)ccc23)CC1 [Compound 271]	+ (+ = pIC50 4.00-4.99)
Cn1cnc(C(=O)N2CCC(c3c[nH]c4cc(F)ccc34)CC2)c1 [Compound 272]	+ (+ = pIC50 4.00-4.99)
O=C(c1cocn1)N1CCC(c2c[nH]c3cc(F)ccc23)CC1 [Compound 274]	+ (+ = pIC50 4.00-4.99)
CC(C)CN1CC(C(=O)N2CCC(c3c[nH]c4cc(F)ccc34)CC2)CC1=O (stereo not drawn) [Compound 275]	+ (+ = pIC50 4.00-4.99)
O=S(=O)(CC(F)(F)F)N1CCC(c2c[nH]c3cc(F)ccc23)CC1 [Compound 287]	++ (++ = pIC50 5.00-5.99)
Fc1ccc2c(C3CCN(c4nnn[nH]4)CC3)c[nH]c2c1 [Compound 290]	+ (+ = pIC50 4.00-4.99)
CN(C)S(=O)(=O)N1CCN(c2c[nH]c3ccccc23)CC1 [Compound 297]	++ (++ = pIC50 5.00-5.99)
CC(=O)N1CCN(c2c[nH]c3ccccc23)CC1C (stereo not drawn) [Compound 298]	++ (++ = pIC50 5.00-5.99)
O=S(=O)(c1ccccc1)N1CCC(c2c[nH]c3cc(F)ccc23)CC1 [Compound 300]	++ (++ = pIC50 5.00-5.99)
Fc1ccc2c(C3CCN(c4ccccc4)CC3)c[nH]c2c1 [Compound 303]	++ (++ = pIC50 5.00-5.99)
O=C1NCC2CN(c3c[nH]c4ccccc34)CCN12 (stereo not drawn) [Compound 307]	++ (++ = pIC50 5.00-5.99)
Fc1ccc2c(C3CCN(c4cccnc4)CC3)c[nH]c2c1 [Compound 309]	++ (++ = pIC50 5.00-5.99)
CC(=O)N1CCN(c2c[nH]c3ccccc23)CC1C#N (stereo not drawn) [Compound 313]	+ (+ = pIC50 4.00-4.99)
CS(=O)(=O)N1CCN(c2c[nH]c3ccccc23)CC1C#N (stereo not drawn) [Compound 314]	++ (++ = pIC50 5.00-5.99)
c1ccc2c(N3CCn4ncnc4C3)c[nH]c2c1 [Compound 315]	+ (+ = pIC50 4.00-4.99)
CS(=O)(=O)N1CCN(c2c[nH]c3ccccc23)CC1CN (stereo not drawn) [Compound 318]	++ (++ = pIC50 5.00-5.99)

Target: T2, IDO (SKOV3 human ovarian adenocarcinoma cells, IFN-γ induced) (Homo sapiens, UniProt P14902)
T2 construct: IDO expression was induced in the SKOV3 cells by the addition of 500 ng/ml IFN-γ; endogenous in cells; host or cells: SKOV3 human ovarian adenocarcinoma cells, induced with IFN-γ
T2 sequence (P14902 whole entry): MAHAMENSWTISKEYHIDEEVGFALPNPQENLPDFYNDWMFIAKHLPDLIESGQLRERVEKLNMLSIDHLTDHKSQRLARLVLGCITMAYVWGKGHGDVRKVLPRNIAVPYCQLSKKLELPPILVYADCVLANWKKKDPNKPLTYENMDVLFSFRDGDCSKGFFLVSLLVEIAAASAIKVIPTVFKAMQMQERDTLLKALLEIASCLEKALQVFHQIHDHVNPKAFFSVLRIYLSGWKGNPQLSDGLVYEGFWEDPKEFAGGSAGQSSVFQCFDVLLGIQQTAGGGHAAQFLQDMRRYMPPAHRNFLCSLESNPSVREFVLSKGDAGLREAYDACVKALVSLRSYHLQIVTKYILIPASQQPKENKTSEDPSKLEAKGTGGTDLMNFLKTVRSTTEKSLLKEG
Assay: SKOV3 Kynurenine cell based assay
Details: IDO induced by 500 ng/ml IFN-γ, 500 μM L-tryptophan, 48 hours
Experimental: as §1
A172 (human glioblastoma) and SKOV3 (human ovarian adenocarcinoma) cells were seeded in a 96 well plate at 30,000 or 40,000 cells per well respectively in phenol red-free RPMI supplemented with 10% FCS, 2 mM L-glutamine and 500 μM L-tryptophan. IDO expression was induced in the SKOV3 cells by the addition of 500 ng/ml IFN-γ. Cells were incubated at 37° C. with or without the addition of test compound. After 48 hours, the cells were removed by centrifugation and Erhlich's reagent was added to the supernatant.

SMILES	SKOV3 Kynurenine cell based assay pIC50
CC(=O)N1CCC(c2c(C)[nH]c3ccccc23)CC1 [Compound 195]	+ (+ = pIC50 4.00-4.99)
CCN(CC)C(=O)N1CCC(c2c[nH]c3ccccc23)CC1 [Compound 211]	+ (+ = pIC50 4.00-4.99)
CC(=O)N1CC=C(c2c[nH]c3cc(C#N)ccc23)CC1 [Compound 214]	+ (+ = pIC50 4.00-4.99)
CS(=O)(=O)N1CCC(c2c[nH]c3cc(OCc4ccccc4)ccc23)CC1 [Compound 222]	+ (+ = pIC50 4.00-4.99)
CS(=O)(=O)N1CCC(c2c[nH]c3c(Cl)cccc23)CC1 [Compound 235]	+ (+ = pIC50 4.00-4.99)
CC(=O)N1CCC(c2c[nH]c3cc(Cl)c(F)cc23)CC1 [Compound 242]	+ (+ = pIC50 4.00-4.99)
CS(=O)(=O)N1CCC(C2C(=O)Nc3ccc(Cl)cc32)CC1 (stereo not drawn) [Compound 294]	++ (++ = pIC50 5.00-5.99)
CS(=O)(=O)N1CCCN(c2c[nH]c3ccccc23)CC1 [Compound 302]	+ (+ = pIC50 4.00-4.99)
CS(=O)(=O)N1CCC(=C2C(=O)Nc3ccc(Br)cc32)CC1 [Compound 305]	+ (+ = pIC50 4.00-4.99)
CS(=O)(=O)N1CCC(C2C(=O)Nc3ccc(Br)cc32)CC1 (stereo not drawn) [Compound 306]	++ (++ = pIC50 5.00-5.99)
CS(=O)(=O)N1CCC(C2C(=O)Nc3ccc(C(F)(F)F)cc32)CC1 (stereo not drawn) [Compound 310]	+ (+ = pIC50 4.00-4.99)
